Laboratory results taken from ChEMBL document CHEMBL1130592, “The synthesis and biological activity of a novel series of diazepine MMP inhibitors” (Bioorg Med Chem Lett, 1998).

Experiments:
Interstitial collagenase = molecular target: T1, Interstitial collagenase (Homo sapiens, UniProt P03956); test: Inhibition of matrix metalloprotease-1 (MMP-1)
T1 sequence (P03956 whole entry): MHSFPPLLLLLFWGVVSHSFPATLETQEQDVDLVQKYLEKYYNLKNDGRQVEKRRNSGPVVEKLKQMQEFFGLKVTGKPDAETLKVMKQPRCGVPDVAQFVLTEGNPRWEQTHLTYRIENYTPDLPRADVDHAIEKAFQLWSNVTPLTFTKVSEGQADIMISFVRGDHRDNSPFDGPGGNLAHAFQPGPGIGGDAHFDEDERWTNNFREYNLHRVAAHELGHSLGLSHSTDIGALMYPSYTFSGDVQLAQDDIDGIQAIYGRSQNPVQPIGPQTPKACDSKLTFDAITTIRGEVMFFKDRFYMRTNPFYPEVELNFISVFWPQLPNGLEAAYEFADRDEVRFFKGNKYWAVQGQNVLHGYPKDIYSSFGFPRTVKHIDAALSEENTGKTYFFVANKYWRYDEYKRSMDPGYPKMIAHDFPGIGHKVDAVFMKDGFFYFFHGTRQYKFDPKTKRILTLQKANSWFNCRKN

[1] = molecular target: Matrix metalloproteinase-9 (Homo sapiens, UniProt P14780); test: Inhibition of matrix metalloprotease-9 (MMP-9)
Collagenase 3 = Collagenase 3 (Homo sapiens, UniProt P45452)
Description: Inhibition of matrix metalloprotease-13 (MMP-13)

Matrix metalloproteinase-9, sequence (P14780 whole entry): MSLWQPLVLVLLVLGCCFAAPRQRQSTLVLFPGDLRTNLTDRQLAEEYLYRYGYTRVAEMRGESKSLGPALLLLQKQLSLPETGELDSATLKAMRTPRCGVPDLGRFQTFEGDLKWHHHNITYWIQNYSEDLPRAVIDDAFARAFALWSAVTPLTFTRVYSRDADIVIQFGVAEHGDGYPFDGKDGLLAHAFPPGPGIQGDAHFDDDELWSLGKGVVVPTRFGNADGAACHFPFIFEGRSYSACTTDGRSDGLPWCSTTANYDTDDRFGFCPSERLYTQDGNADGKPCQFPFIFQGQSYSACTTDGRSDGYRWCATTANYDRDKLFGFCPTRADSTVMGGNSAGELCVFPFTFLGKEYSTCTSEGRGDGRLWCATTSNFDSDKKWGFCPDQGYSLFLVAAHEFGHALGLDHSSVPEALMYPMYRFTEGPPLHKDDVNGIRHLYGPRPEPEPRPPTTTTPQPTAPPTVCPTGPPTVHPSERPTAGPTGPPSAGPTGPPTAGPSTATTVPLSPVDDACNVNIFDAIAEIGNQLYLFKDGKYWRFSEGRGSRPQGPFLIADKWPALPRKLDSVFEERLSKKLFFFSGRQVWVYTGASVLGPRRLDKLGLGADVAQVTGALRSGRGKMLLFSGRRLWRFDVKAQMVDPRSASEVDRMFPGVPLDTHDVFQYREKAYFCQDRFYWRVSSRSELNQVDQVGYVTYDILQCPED

Compound | IC50 (Interstitial collagenase) [nM] | IC50 [1] [nM] | IC50 (Collagenase 3) [nM]
COc1ccc(S(=O)(=O)N2CCCN(C(=O)N[C@@H](C)c3ccccc3)CC2C(=O)NO)cc1 (stereo partly specified) | 312 | 9.2 | 10.4
COc1ccc(S(=O)(=O)N2CCCNCC2C(=O)NO)cc1 (stereo unspecified) | 91 | 60 | 5.1
COc1ccc(S(=O)(=O)N2CCCN(C(=O)CNC(=O)OC(C)(C)C)CC2C(=O)NO)cc1 (stereo unspecified) | 690 | 23 | 16
COc1ccc(S(=O)(=O)N2CCCN(C(=O)Nc3ccccc3)CC2C(=O)NO)cc1 (stereo unspecified) | 309 | 18 | 17
COc1ccc(S(=O)(=O)N2CCCN(C(=O)c3ccc(OC(F)(F)F)cc3)CC2C(=O)NO)cc1 (stereo unspecified) | 128 | 4 | 6.2
COc1ccc(S(=O)(=O)N2CCCN(C(=O)OC(C)(C)C)CC2C(=O)NO)cc1 (stereo unspecified) | 618 | 9.1 | 26
COc1ccc(S(=O)(=O)N2CCCN(C(=O)c3ccccc3)CC2C(=O)NO)cc1 (stereo unspecified) | 45 | 2 | 2.2
COc1ccc(S(=O)(=O)N2CCCN(Cc3ccccc3)CC2C(=O)NO)cc1 (stereo unspecified) | 445 | 31 | 65
O=C(NO)C1CN(C(=O)c2ccccc2)CCCN1S(=O)(=O)c1ccc(Oc2ccccc2)cc1 (stereo unspecified) | 22 | 1.2 | 1.3
COc1ccc(S(=O)(=O)N2CCCN(C(=O)c3ccccc3-c3ccccc3)CC2C(=O)NO)cc1 (stereo unspecified) | 116 | 3.3 | 4.6
COc1ccc(S(=O)(=O)N2CCCN(C(=O)CN)CC2C(=O)NO)cc1 (stereo unspecified) | 703 | 157 | 46
COc1ccc(S(=O)(=O)N2CCCN(C(=O)C(C)(C)C)CC2C(=O)NO)cc1 (stereo unspecified) | 251 | 4.8 | 11
